Results: US5736548A, “6-aryl pyrazolo[3,4-D] pyrimidin-4-ones and compositions and method of use thereof” (Sanofi, priority 1997, dated 1998)
“And” between values parts separate entries of the source, which are not always exact repeats. Identical values can stand only once.

Tests used:
[1] = molecular target: cGMP-PDE V (Homo sapiens, UniProt O76074); test: biochemical; set-up: species or system various animal species and man; conditions: values separated by / and marked * are separate experimental runs
Method: The cGMP-PDE and other PDE isozymes were isolated from cardiovascular tissues (heart and aorta) of various animal species and man by anion-exchange and affinity chromatography as described by Silver et al., Sec. Messeng. Phos. 13:13-25, 1991; PDE activity, in the presence and absence of test compounds was determined essentially as described by Thompson et al., Adv. Cyclic Nucleotide Res. 10:69-92. To determine the potency and selectivity of compounds as PDE inhibitors, compounds are screened for their effect on cyclic nucleotide hydrolysis at 10 μM. […] The IC50 values are calculated from concentration-response curves as described by Tallarida and Murray, Manual of Pharmacologic Calculations with Computer Programs, Procedure 8, Graded Dose-response, pp. 14-19, Springer-Verlag, New York, 1981.

[2] = system: Spontaneously hypertensive rats (SHR); test: Antihypertensive activity in conscious spontaneously hypertensive rats (mean arterial pressure); format: in vivo; conditions: Rattus norvegicus, 5 min, SHR iv
Method: After a 2 day recovery from surgery, three baseline blood pressure measurements were made at 5 min intervals in conscious SHR. Compounds to be tested or vehicle were then administered intravenously in a dose-dependent manner (0.3-10 mg base/kg) while arterial pressure was recorded continuously on a polygraph. The mean arterial pressure response was measured 5 minutes after the administration of each dose of the test compound and the next dose given in a cumulative dose fashion. The response to each dose of the test compound was calculated as the difference from the mean of the three baseline measurements.

[3] = system: Spontaneously hypertensive rats (SHR); test: as above; format: in vivo; conditions: Rattus norvegicus, 5 min, po
[4] = system: nitroglycerin tolerant spontaneously hypertensive rats; test: Reversal of nitroglycerin-induced tolerance in spontaneously hypertensive rats; format: in vivo; conditions: intravenously 5-10 minutes prior to nitroglycerin challenge
Method: Spontaneously hypertensive rats (17-25 weeks of age) were made nitroglycerin tolerant by repeated administration of high doses of nitroglycerin (100 mg/kg, s.c., 3 times/day for 3 consecutive days). To confirm tolerance challenge doses of nitroglycerin were administered intravenously at doses ranging from 1-300 μg/kg and the maximum change in mean arterial pressure (MAP) for each dose was recorded. Groups of tolerant rats were pretreated with the compounds of the invention (tolerant pretreated group) or with vehicle (0.05N NaOH) (tolerant vehicle pretreated group) intravenously 5-10 minutes prior to administration of challenge doses of nitroglycerin. The administration of challenge doses of nitroglycerin to non-tolerant rats (the non-tolerant group) caused a dose-dependent decrease in MAP of between 10 to 40 mm Hg. […] The area under the dose-MAP curve was calculated for the non-tolerant group and for the tolerant vehicle pretreated group and the tolerant pretreated group. The percent reversal of nitrate-inducedtolerance was calculated as follows:
Percent Reversal=(AUCtol -pretreated-AUCtol-veh)/(AUCnontol
AUCnontol =the area under the dose-MAP curve for the non-tolerant group.
AUCtol-veh =the area under the dose-MAP curve for the tolerant vehicle pretreated group.
AUCtol-pretreated =the area under the dose-MAP curve for the tolerant pretreated group.
The following table summarizes the results obtained from the testing of representative compounds of the invention.

SMILES | IC50 [1] | ED25 [2] [mg/kg] | change in vivo at 1 mg/kg ([2]; 5 minutes after dose) [%] | change in vivo at 3 mg/kg ([2]; 5 minutes after dose) [%] | change in vivo at 10 mg/kg ([2]; 5 minutes after dose) [%] | change in vivo at 10 mg/kg ([3]; 10 mg/kg) [%] | Percent (%) Reversal of Nitroglycerin-induced Tolerance ([4]; 0.3 mg/kg) [%] | change in vivo at 30 mg/kg [3] [%] | change in vivo at 0.3 mg/kg ([2]; 0.3 mg/kg, 5 minutes after dose) [%] | Percent (%) Reversal of Nitroglycerin-induced Tolerance ([4]; 1.0 mg/kg) [%]
CCc1nn(C2CCCC2)c2nc(-c3ccc(OCCN4CCOCC4)c(OCCN4CCOCC4)c3)[nH]c(=O)c12 [25 (b), 1-cyclopentyl-3-ethyl-6-[3,4-[2-(4-morpholinyl)ethoxy]phenyl]pyrazolo[3,4-d]pyrimidin-4-one] | 0.014 µM and 0.051 µM | 4.5 | -18 | -27 | -38 | -18 |  |  |  | 
CCc1nn(C2CCCC2)c2nc(-c3ccc(-n4ccnc4)cc3)[nH]c(=O)c12 [8 (a), 1-cyclopentyl-3-ethyl-6-[4-(1-imidazolyl)phenyl]-pyrazolo-[3,4-d] pyrimidin-4-one 1/2 hydrate] | 0.41 µM and 0.43 µM | 5.7 |  | -20 | -35 |  | 5 | -81 |  | 
CCc1[nH]n(C2CCCC2)c2nc(-c3cccc(OCCN4CCOCC4)c3)nc(=O)c1-2 [13 (b), 1-cyclopentyl-3-ethyl-6-[3-[2-(4-morpholinyl)ethoxy]phenyl]-pyrazolo[3,4-d]pyrimidin-4-one] | 0.107 µM | 9.5 | -14 | -19 |  |  | 58 | -58 | -11 | 
CCCOc1ccccc1-c1nc2n(C3CCCC3)[nH]c(CC)c-2c(=O)n1 [Example 6, 1-cyclopentyl-3-ethyl-6-(2-propoxyphenyl)-pyrazolo[3,4-d]pyrimidin-4-one] | 0.0016 µM |  |  |  | -1 |  |  |  |  | 49
